In brackets after ≈: the same amount, converted by molar mass. Bounds are passed on as bounds.

Results on 72 compounds are retold here after PubChem BioAssay AID1996.

For this data set the following is noted: buffer; pH 7.4; 200.0 µM.
What is called solubility (kinetic) is solubility judged after dilution from a stock solution rather than from solid. `Cc1ccnc(SCc2ccc([N+](=O)[O-])cc2)n1`: the solubility (kinetic) came out at 29.7 µg/mL (≈ 114 µM).

In turn, `O=C(Cc1ccccc1Cl)NC1(O)C(=O)c2ccccc2C1=O` came in with a solubility (kinetic) of more than 49.5 µg/mL. Compound `Cc1ccc(NC(=O)c2ccc(Oc3ncccn3)cc2)cc1` gave a solubility (kinetic) of 5 µg/mL (≈ 16.4 µM). Compound `Cc1ccc(C(=O)Nc2ccc(CN3CCS(=O)(=O)CC3)cc2)cc1C` came in with a kinetic solubility of 42.7 µg/mL (≈ 115 µM).

Regarding `Fc1ccc(N2CN(Cc3cccnc3)CNC2=S)cc1`, the solubility (kinetic) was more than 45.4 µg/mL. To `Cc1ccc(C)c(OCCCN2CCc3ccccc3C2)c1.Cl` belongs 14 µg/mL; to `Cc1cc(=O)c2ccc(C(F)(F)F)cc2[nH]1`, more than 34.1 µg/mL.

As to `CC(OC(=O)c1cccnc1)C(=O)Nc1ccc2c(c1)OCO2` (configuration not stated), the kinetic solubility turned out to be 44 µg/mL (≈ 140 µM). `CC(=O)Nc1ccc2c(c1)nc(CCN1CCN(c3ccccn3)CC1)n2C` came in with a solubility (kinetic) of less than 0.1 µg/mL. Regarding `O=C(CCNC(=O)c1ccccc1)Nc1cccnc1`, the solubility (kinetic) is more than 40.4 µg/mL. To `CCCCn1c(SCC(=O)N(C)C)nnc1-c1ccncc1` belongs more than 47.9 µg/mL; to `CCCS(=O)(=O)NCCc1csc(-c2ccc(OC)c(OC)c2)n1`, 51.7 µg/mL (≈ 140 µM); to `CC(C)CN(CC(C)C)C(=O)COc1ccccc1C(N)=O`, more than 46 µg/mL. In turn, `CNc1nc(Cl)c(SC)c(NCc2cccc(OC)c2)n1` showed a kinetic solubility of 1 µg/mL (≈ 3.08 µM).

Consider `CC(C)CCn1cnc2c1c(=O)[nH]c(=O)n2Cc1ccccc1`, for which the kinetic solubility was 29.8 µg/mL (≈ 95.4 µM). As to `Cc1ccc(CSCC(=O)NCc2cccs2)cc1`, the solubility (kinetic) came out at 41.9 µg/mL (≈ 144 µM).

For `CN1CC(=O)N2[C@H](c3ccc4c(c3)OCO4)c3[nH]c4ccccc4c3C[C@@H]2C1=O`, the solubility (kinetic) came to 3.2 µg/mL (≈ 8.22 µM). To `COCCSc1ccccc1C(=O)Nc1cc(C)cc(C)c1` belongs 41.2 µg/mL (≈ 131 µM).

`COc1ccc(CCOC(=O)c2cccc(NC(C)=O)c2)cc1` displayed a solubility (kinetic) of more than 47 µg/mL. As for `CCCCN1C(=O)c2ccc(C(=O)OCC(=O)NCCc3ccc(S(N)(=O)=O)cc3)cc2C1=O`, the solubility (kinetic) is 42.1 µg/mL (≈ 86.4 µM). In turn, `CC(C)C(=O)NCC(c1ccc2c(c1)OCO2)N1CCOCC1` (configuration not stated) came in with a solubility (kinetic) of more than 48.1 µg/mL. With `C/C(=N\O)C(C)(C)Nc1ccc(Cl)cc1`, the solubility (kinetic) amounted to 32.1 µg/mL (≈ 142 µM). To `O=C(CNC(=O)c1ccc2c(c1)OCO2)Nc1ncccc1O` belongs more than 47.3 µg/mL; to `Cc1ccc[n+](CC(=O)Nc2ccc(Cl)c([N+](=O)[O-])c2)c1.[Cl-]`, more than 51.3 µg/mL.

`O=C(COc1ccc(Cl)cc1)NCc1ccc(F)cc1` had a kinetic solubility of 41.5 µg/mL (≈ 141 µM).

`CCOC(=O)CSc1nnc(CNC(=O)c2cccc(C)c2)n1C` came in with a kinetic solubility of more than 52.3 µg/mL. To `O=C(Nc1ccc(F)cc1F)Nc1csc2ccccc12` belongs 0.6 µg/mL (≈ 1.97 µM); to `CCC(C)[C@H](NC(=O)N1CCCCC1)C(=O)OC` (some centres not stated), more than 38.5 µg/mL; to `CCc1ccc2oc(C(=O)N3CCN(C)CC3)cc(=O)c2c1`, more than 45.1 µg/mL.

The compound `COc1ccc(C(CC(=O)N2CCCCC2)C(C)C)cc1` (configuration not stated) showed a kinetic solubility of more than 43.4 µg/mL.

For `CC1(C)CC(NC(=O)c2cc(S(=O)(=O)N3CCOCC3)ccc2Cl)CC(C)(C)N1.Cl`, the kinetic solubility was more than 72.1 µg/mL. As to `O=C(NNC(=S)NC1CC2C=CC1C2)c1cccnc1` (configuration not stated), the solubility (kinetic) was more than 43.3 µg/mL. `CC1(C)CN=C(N(C(=O)Nc2ccccc2)c2ccccc2F)S1` registered a solubility (kinetic) of 8.3 µg/mL (≈ 24.2 µM).

On to `COc1ccc(NC(=O)[C@@H]2CCCN2S(=O)(=O)c2ccc(Cl)cc2)cc1`, for which the solubility (kinetic) was more than 59.2 µg/mL.

The compound `Cc1ccccc1NC(=O)CN1CCOCC1.Cl` gave a solubility (kinetic) of more than 40.6 µg/mL.

For `COC(=O)[C@H](CCSC)NC(=O)Nc1cccc(Br)c1`, the kinetic solubility is more than 54.2 µg/mL. To `Cc1ccccc1NC(=O)c1ccc2ccccc2c1` belongs 1.2 µg/mL (≈ 4.59 µM); to `Cc1nnc(SCC(=O)N2CCCC2)n(N)c1=O`, more than 40.4 µg/mL; to `CCOC(=O)NC(=O)c1cn(CCNCCO)c(=O)[nH]c1=O`, more than 47.1 µg/mL. In turn, `CSc1ncccc1C(=O)OCC(=O)Nc1ccc2c(c1)OCO2` registered a solubility (kinetic) of 2.7 µg/mL (≈ 7.8 µM).

On to `COc1cccc(N2C(=O)C3C(C2=O)C3(c2ccccc2)c2ccccc2)c1` (configuration not stated), for which the kinetic solubility is 6.3 µg/mL (≈ 17.1 µM).

With `NS(=O)(=O)c1ccc(N2CCN(C(=O)c3ccco3)CC2)nc1`, the kinetic solubility is more than 50.5 µg/mL. `CN1C=C/C(=C\c2cc[n+](C)c3ccccc23)c2ccccc21.[I-]` came in with a kinetic solubility of 40.1 µg/mL.

The compound `Cc1nnc(NC(=O)CCNC(=O)c2ccccc2Cl)s1` yielded a kinetic solubility of more than 48.7 µg/mL. The compound `O=C(COC(=O)[C@@H]1CCCN1C(=O)c1cccs1)Nc1cccc([N+](=O)[O-])c1` registered a kinetic solubility of 2.8 µg/mL (≈ 6.94 µM). As to `CNC(=O)C(NC(=O)c1ccccc1)=C(C)C`, the solubility (kinetic) was more than 34.8 µg/mL. To `O=c1c2ccccc2nc2oc3ccccc3n12` belongs 1.1 µg/mL (≈ 4.66 µM). `O=C(c1ccncc1)N1CCN(S(=O)(=O)c2ccccc2F)CC1` came in with a kinetic solubility of more than 52.4 µg/mL. With `CC(=O)Nc1ccc(NC(=O)COc2ccc(-c3ccccc3)cc2)cc1`, the kinetic solubility was less than 0.4 µg/mL. `Cc1cnc(NC(=O)c2ccc(Cl)nc2)s1`: the solubility (kinetic) stood at 6.6 µg/mL (≈ 26 µM).

`O=C(NCCCN1CCOCC1)C(=O)NCc1ccccc1` had a solubility (kinetic) of more than 45.8 µg/mL. To `O=C1C2C3C=CC(C4CC34)C2C(=O)N1c1cc(Cl)ccn1` (configuration not stated) belongs 42.6 µg/mL (≈ 142 µM); to `CC(Nc1nc(-c2ccccc2O)nc2ccccc12)c1ccccc1` (configuration not stated), less than 0.2 µg/mL. To `Cc1cc(-c2ccccc2)oc(=O)c1NC(=O)c1ccccc1` belongs less than 0.7 µg/mL; to `Cc1ncc([N+](=O)[O-])n1CC(=O)Nc1ccc(Cl)cc1`, 5.7 µg/mL (≈ 19.3 µM); to `O=c1[nH]c2ccccc2[n+]([O-])c1-c1ccccc1`, more than 35.7 µg/mL. In turn, `Cn1nc(C(=O)NC2CCCC2)c2ccccc2c1=O` came in with a kinetic solubility of more than 40.7 µg/mL. `CC(C(=O)Nc1ccccc1)N(C)CCOc1ccccc1` (configuration not stated): the kinetic solubility is 43.7 µg/mL (≈ 146 µM). Compound `C=Cn1cc[n+](CC(=O)c2ccc(OC)c(OC)c2)c1.[Br-]` had a kinetic solubility of more than 53 µg/mL. For `Cc1ccc(C)c(-n2c3nc(=O)n(C)c(=O)c-3cc3ccccc32)c1`, the solubility (kinetic) was more than 49.7 µg/mL. The compound `CN(C(=O)CCc1nc2ccccc2c(=O)[nH]1)C1CCS(=O)(=O)C1` (configuration not stated) gave a solubility (kinetic) of more than 52.4 µg/mL. As for `CCN(CC)CCCN(C(=O)c1ccc(F)cc1)c1nc(-c2ccc(OC)cc2)cs1`, the solubility (kinetic) came out at 62.1 µg/mL (≈ 141 µM). To `Cc1ccc2[nH]c(C)c(CCNCc3ccco3)c2c1.Cl` belongs 42.9 µg/mL; to `Cc1ccc(N2C(=O)CC(C)CC2=O)cc1`, more than 32.6 µg/mL; to `NS(=O)(=O)c1ccc(NC(=O)COc2ccc(Cl)cc2)cc1`, 2.5 µg/mL (≈ 7.34 µM). For `COc1cc(NC(=O)C2CC2)c(OC)cc1NC(=O)c1ccco1` the value was 3.6 µg/mL (≈ 10.9 µM); for `Cc1ccc2c(c1)cc(C(=O)NCc1ccccc1)n2C`, 3.5 µg/mL (≈ 12.6 µM). In turn, `CC(C)(C)C(=O)CN1C(=O)NC2(CCc3ccccc32)C1=O` (configuration not stated) came in with a kinetic solubility of more than 45.1 µg/mL. In turn, `CC(C)CC(=O)NC(C)C(c1cccs1)N1CCOCC1` (configuration not stated) displayed a kinetic solubility of 45.4 µg/mL (≈ 146 µM). The compound `O=C(COc1ccc(S(=O)(=O)N2CCOCC2)cc1)NC1CC1` came in with a kinetic solubility of more than 51.1 µg/mL.

Regarding `CC1(C)Cc2cccc(OCC(=O)Nc3ccccc3C(F)(F)F)c2O1`, the solubility (kinetic) came to 7.5 µg/mL (≈ 20.5 µM). Turning to `CCn1cc(C(=O)Nc2cccc(C)c2)c(=O)c2ccc(C)nc21`, the solubility (kinetic) is less than 0.2 µg/mL.
